This is an account of results in US9822099B2, “Triazole derivatives” (priority 2013, dated 2017).

Marks after values point to notes of the source that are not given here.

The test system of series [1] is Phakopsora pachyrhizi. In words: Example L: Phakopsora test (soybeans)/preventive. The note with it: preventive, evaluated 7 days after inoculation. In kind it is in vivo.
For series [2], the system named is Septoria tritici. The series is described as follows: Example D: in vivo preventive test on Septoria tritici (leaf spot on wheat). The note with it: wheat plants, preventive spray, evaluated 24 days after inoculation. As to the method:
The young plants of wheat are treated by spraying the active ingredient prepared as described above. Control plants are treated only with an aqueous solution of acetone/Dimethyl sulfoxide/Tween®. After 24 hours, the plants are contaminated by spraying the leaves with an aqueous suspension of Septoria tritici spores.

Series [3] concerns Botrytis cinerea. In words: Example A: in vivo preventive test on Botrytis cinerea (grey mould). The note with it: gherkin plants, preventive spray, evaluated 4 to 5 days after inoculation. As to the method:
The young plants of gherkin are treated by spraying the active ingredient prepared as described above. Control plants are treated only with an aqueous solution of acetone/Dimethyl sulfoxide/Tween®. After 24 hours, the plants are contaminated by spraying the leaves with an aqueous suspension of Botrytis cinerea spores.

Series [4] concerns Blumeria graminis f. sp. hordei. The series is described as follows: Example G: Blumeria test (barley)/preventive. It counts as in vivo. The settings on record: 500 ppm of active ingredient, preventive, evaluated 7 days after inoculation. As to the method:
(§1) Solvent: 49 parts by weight of N,N-dimethylacetamide Emulsifier: 1 part by weight of alkylaryl polyglycol ether To produce a suitable preparation of active compound, 1 part by weight of active compound or active compound combination is mixed with the stated amounts of solvent and emulsifier, and the concentrate is diluted with water to the desired concentration. To test for preventive activity, young plants are sprayed with the preparation of active compound or active compound combination at the stated rate of application. After the spray coating has been dried, the plants are dusted with spores of Blumeria graminis f. sp. hordei.

For series [5] the following is noted: pH 2.7.
Series [6] deals with Uromyces appendiculatus. The series is described as follows: Example F: in vivo preventive test on Uromyces appendiculatus (bean rust). The note with it: bean plants, preventive spray, evaluated 11 days after inoculation. As to the method:
The young plants of bean are treated by spraying the active ingredient prepared as described above. Control plants are treated only with an aqueous solution of acetone/Dimethyl sulfoxide/Tween®. After 24 hours, the plants are contaminated by spraying the leaves with an aqueous suspension of Uromyces appendiculatus spores.

The test system of series [7] is Fusarium graminearum. In kind it is in vivo. The settings on record: 500 ppm of active ingredient; barley, preventive; evaluated 5 days after inoculation.
Series [8] has as its system Fusarium nivale (var. majus). The series is described as follows: Example J: Fusarium nivale (var. majus)-test (wheat)/preventive. It counts as in vivo. The settings on record: 500 ppm of active ingredient, preventive, evaluated 5 days after inoculation. As to the method: (§2) Solvent: 49 parts by weight of N,N-dimethylacetamide
(§3) Emulsifier: 1 part by weight of alkylaryl polyglycol ether
(§4) To produce a suitable preparation of active compound, 1 part by weight of active compound or active compound combination is mixed with the stated amounts of solvent and emulsifier, and the concentrate is diluted with water to the desired concentration.
To test for preventive activity, young plants are sprayed with the preparation of active compound or active compound combination at the stated rate of application.
After the spray coating has been dried, the plants are slightly injured by using a sandblast and afterwards they are sprayed with a conidia suspension of Fusarium nivale (var. majus).
The plants are placed in the greenhouse under a translucent incubation cabinet at a temperature of approximately 10° C. and a relative atmospheric humidity of approximately 100%.
(§5) The test is evaluated 5 days after the inoculation. 0% means an efficacy which corresponds to that of the untreated control, while an efficacy of 100% means that no disease is observed.

For series [9], the system named is Pyricularia oryzae. It counts as in vivo. The note with it: 500 ppm of active ingredient; rice, preventive; evaluated 8 days after inoculation.
The test system of series [10] is Sphaerotheca fuliginea. In words: Example E: in vivo preventive test on Sphaerotheca fuliginea (powdery mildew on cucurbits). The settings on record: gherkin plants, preventive spray, evaluated 15 days after inoculation. As to the method: The young plants of gherkin are treated by spraying the active ingredient prepared as described above. Control plants are treated only with an aqueous solution of acetone/Dimethyl sulfoxide/Tween®. After 24 hours, the plants are contaminated by spraying the leaves with an aqueous suspension of Sphaerotheca fuliginea spores.

Series [11] concerns Puccinia recondita. The series is described as follows: Example B: in vivo preventive test on Puccinia recondita (brown rust on wheat). The note with it: wheat plants, preventive spray, evaluated 11 days after inoculation. As to the method: The young plants of wheat are treated by spraying the active ingredient prepared as described above. Control plants are treated only with an aqueous solution of acetone/Dimethyl sulfoxide/Tween®. After 24 hours, the plants are contaminated by spraying the leaves with an aqueous suspension of Puccinia recondita spores.

Series [12] relates to Venturia inaequalis. The series is described as follows: Example O: Venturia test (apples)/preventive. It counts as in vivo. The note with it: 100 ppm of active ingredient, preventive, evaluated 10 days after inoculation. As to the method:
Solvent: 24.5 parts by weight of acetone • 24.5 parts by weight of dimethylacetamide Emulsifier: 1 part by weight of alkylaryl polyglycol ether To produce a suitable preparation of active compound, 1 part by weight of active compound is mixed with the stated amounts of solvent and emulsifier, and the concentrate is diluted with water to the desired concentration. To test for preventive activity, young plants are sprayed with the preparation of active compound at the stated rate of application.

In series [13] the test system is Pyrenophora teres. The series is described as follows: Example C: in vivo preventive test on Pyrenophora teres (net blotch on barley). The note with it: barley plants, preventive spray, evaluated 14 days after inoculation. As to the method: The young plants of barley are treated by spraying the active ingredient prepared as described above. Control plants are treated only with an aqueous solution of acetone/Dimethyl sulfoxide/Tween®. After 24 hours, the plants are contaminated by spraying the leaves with an aqueous suspension of Pyrenophora teres spores.

In series [14] the test system is Fusarium culmorum. In words: Example H: Fusarium culmorum-test (wheat)/curative. In kind it is in vivo. The note with it: 500 ppm of active ingredient, curative, evaluated 5 days after inoculation. As to the method:
as §2, §3, §4
To test for curative activity, young plants are slightly injured by using a sandblast and afterwards they are sprayed with a conidia suspension of Fusarium culmorum and placed for 24 hours in a greenhouse under a translucent incubation cabinet at a temperature of approximately 22° C. and a relative atmospheric humidity of approximately 100% and are subsequently sprayed with the preparation of active compound at the stated rate of application.
After the spray coating has been dried, the plants remain in the greenhouse under translucent incubation cloches at a temperature of approximately 22° C. and a relative atmospheric humidity of approximately 100%.
as §5

Series [15] concerns Leptosphaeria nodorum. In words: Example K: Leptosphaeria nodorum test (wheat)/preventive. It counts as in vivo. The settings on record: 500 ppm of active ingredient, preventive, evaluated 8 days after inoculation. As to the method:
as §1, with “sprayed” for “dusted”, “a spore suspension” for “spores”, “Leptosphaeria nodorum.” for “Blumeria graminis f. sp. hordei.”

For the compound `CC(C)(F)C(O)(Cc1ccncc1Cl)Cn1cncn1` (racemic) [Example I-76], the Eff. % was 100% in series [1] (100 ppm of active ingredient); 100% in [2] (500 ppm of active ingredient); 100% in [3] (500 ppm of active ingredient); 100% in series [4]; 100% in [6] (500 ppm of active ingredient); 86% in series [7]. In addition, the Eff. % in series [8] worked out at 100%; in series [9] it was 71%; in series [10] (500 ppm of active ingredient), 100%; in series [11] (500 ppm of active ingredient) it was 100%; in [12] it was 74%; in series [13] (500 ppm of active ingredient), 79%. In addition, the LogP in series [5] is 1.20^[a].
As for `OC(Cc1nccnc1I)(Cn1cncn1)C1(Cl)CC1` (stereo not shown) [Example I-54], the Eff. % was found to be 99% in series [1] (100 ppm of active ingredient); 100% in series [2] (500 ppm of active ingredient); 100% in [3] (500 ppm of active ingredient); 100% in [4]; 100% in series [6] (500 ppm of active ingredient); 100% in series [7]. Further, the Eff. % in series [8] was found to be 100%; in [9], 78%; in series [10] (500 ppm of active ingredient), 100%; in [11] (500 ppm of active ingredient) it was 97%; in [12], 89%. In addition, the LogP in series [5] was 2.07^[a].
Consider `OC(Cc1ccnc(Cl)c1)(Cn1cncn1)C1(Cl)CC1` (stereo not shown) [Example I-39], for which the Eff. % in [14] is listed as 100%; in series [1] (10 ppm of active ingredient), 88%; in series [2] (500 ppm of active ingredient), 100%; in [3] (500 ppm of active ingredient), 99%; in series [4], 100%; in series [6] (500 ppm of active ingredient), 100%. Besides, the Eff. % was 100% in series [7]; 100% in series [8]; 80% in series [9]; 100% in series [10] (500 ppm of active ingredient); 97% in series [11] (500 ppm of active ingredient); 100% in series [15]. This compound also had an Eff. % in [13] (500 ppm of active ingredient) of 100%. Further, in series [5], the LogP is 1.76^[a].
On to `OC(Cc1cccc(Cl)n1)(Cn1cncn1)C1(Cl)CC1` (stereo not shown) [Example I-29], for which the Eff. % in series [14] is recorded as 100%; in series [2] (500 ppm of active ingredient), 100%; in series [3] (500 ppm of active ingredient), 94%; in series [4] it was 100%; in [6] (500 ppm of active ingredient), 100%; in series [7], 100%. Moreover, the Eff. % amounted to 100% in series [8]; 70% in [9]; 100% in series [10] (500 ppm of active ingredient); 97% in series [11] (500 ppm of active ingredient); 100% in series [15]; 95% in series [13] (500 ppm of active ingredient). For the same compound, in [5], the LogP is 2.18^[a].
Turning to `OC(CCc1ccc(Cl)cc1)(Cc1ccncc1Cl)Cn1cncn1` (racemic) [Example I-69], the Eff. % in series [1] (100 ppm of active ingredient) was 91%; in [2] (500 ppm of active ingredient), 100%; in series [4] it was 100%; in series [6] (500 ppm of active ingredient), 100%; in [7], 71%; in series [10] (500 ppm of active ingredient) it was 100%. Further, the Eff. % is reported as 98% in [11] (500 ppm of active ingredient), 89% in series [15], 100% in series [12] and 93% in series [13] (500 ppm of active ingredient). The LogP in [5] was 2.40^[a].
As to `OC(Cc1ccnc(Cl)c1Cl)(Cn1cncn1)C1(Cl)CC1` (racemic) [Example I-82], the Eff. % in series [1] (100 ppm of active ingredient), in [2] (500 ppm of active ingredient), in series [3] (500 ppm of active ingredient), in series [4], in series [6] (500 ppm of active ingredient) and in series [7] was 100% each time. Besides, the Eff. % in series [8] is 100%; in [9], 100%; in [10] (500 ppm of active ingredient), 100%; in series [11] (500 ppm of active ingredient), 98%; in series [15], 100%; in series [12] it was 95%. This compound also returned an Eff. % in series [13] (500 ppm of active ingredient) of 97%. The LogP in series [5] was 2.39^[a].
`OC(Cc1ccncc1F)(Cn1cncn1)C1(F)CC1` (stereo not shown) [Example I-19]: the Eff. % in series [14] is 100%; in series [1] (10 ppm of active ingredient), 96%; in [2] (100 ppm of active ingredient), 75%; in series [3] (100 ppm of active ingredient) it was 100%; in series [4], 100%; in [6] (100 ppm of active ingredient), 98%. For the same compound, the Eff. % in series [7] was 100%; in series [8], 100%; in series [9] it was 100%; in series [10] (100 ppm of active ingredient) it was 100%; in series [11] (100 ppm of active ingredient), 88%; in series [15] it was 100%. The Eff. % in [13] (100 ppm of active ingredient) was 75%. The LogP in [5] was 0.91^[a].
For the compound `OC(Cc1ccnnc1Cl)(Cn1cncn1)C1(Cl)CC1` (stereo not shown) [Example I-45], the Eff. % in [14] is recorded as 100%; in [1] (10 ppm of active ingredient), 93%; in series [2] (100 ppm of active ingredient), 100%; in [4] it was 100%; in [6] (100 ppm of active ingredient), 100%; in series [7], 100%. The Eff. % was determined as 100% in series [8], 100% in series [10] (100 ppm of active ingredient), 97% in series [11] (100 ppm of active ingredient) and 88% in series [15]. Moreover, the LogP in series [5] is 1.31^[a].
Consider `CC(CF)(CF)C(O)(Cc1ccnc(Cl)c1F)Cn1cncn1` (stereo not shown) [Example I-61], for which the Eff. % was 100% in [14]; 80% in [1] (10 ppm of active ingredient); 100% in series [2] (500 ppm of active ingredient); 99% in series [3] (500 ppm of active ingredient); 100% in series [4]; 100% in series [6] (500 ppm of active ingredient). In addition, the Eff. % in [7] was 100%; in series [8], 100%; in series [10] (500 ppm of active ingredient), 100%; in series [11] (500 ppm of active ingredient) it was 98%; in [15], 75%; in [13] (500 ppm of active ingredient), 93%. Further, in series [5], the LogP is 1.87^[a].
